Experimental data reported in US8592621B2, “Precursor compounds of sweet taste receptor antagonists for the prevention or treatment of disease” (Symrise AG, priority 2009, dated 2013).

What was measured:
[1] = system: sweet taste impression of sweet tasting substances; test: Influence on the sensorial quality of sweet substances (expert panel rating of sweet taste impression); format: in vivo; details: for Sweet taste impression (1-10) Sample (B): scale 1 [not sweet] to 10 [extremely sweet]; for Change in sweet taste impression [%]: sample B vs sample A
From the text: In order to quantify the influence of inventive compounds of formula (I) on the sensorial characteristics of various sweet tasting substances, in each case a sample (A) (sweet tasting substance) and a sample (B) (sweet tasting substance+compound of formula (I) or lactisole (as standard)) were sensorially assessed by a group of experts and rated according to their sweet taste impression on a scale of 1 [not sweet] to 10 [extremely sweet]. Then in each case from the average values of the assessments of samples (A) and (B) the change (in %) in the sweet taste impression was calculated.

T1R2/T1R3 receptors [2] = target: T1, T1R2/T1R3 receptors (Homo sapiens, UniProt Q7RTX0+Q8TE23); test: Calcium mobilization (FLIPR) in HEK293TREX cells expressing human TAS1R2/TAS1R3; format: cell-based; details: in the presence of naringin dihydrochalcone; FIG. 3
T1 construct: expressed in transfected cells; TAS1R2 from pCDNA5-FRT, TAS1R3 from pCDNA3-TO (tetracycline-induced), G15-Gi3 from pIRESpuro3
T1 sequence (Q8TE23 20-839): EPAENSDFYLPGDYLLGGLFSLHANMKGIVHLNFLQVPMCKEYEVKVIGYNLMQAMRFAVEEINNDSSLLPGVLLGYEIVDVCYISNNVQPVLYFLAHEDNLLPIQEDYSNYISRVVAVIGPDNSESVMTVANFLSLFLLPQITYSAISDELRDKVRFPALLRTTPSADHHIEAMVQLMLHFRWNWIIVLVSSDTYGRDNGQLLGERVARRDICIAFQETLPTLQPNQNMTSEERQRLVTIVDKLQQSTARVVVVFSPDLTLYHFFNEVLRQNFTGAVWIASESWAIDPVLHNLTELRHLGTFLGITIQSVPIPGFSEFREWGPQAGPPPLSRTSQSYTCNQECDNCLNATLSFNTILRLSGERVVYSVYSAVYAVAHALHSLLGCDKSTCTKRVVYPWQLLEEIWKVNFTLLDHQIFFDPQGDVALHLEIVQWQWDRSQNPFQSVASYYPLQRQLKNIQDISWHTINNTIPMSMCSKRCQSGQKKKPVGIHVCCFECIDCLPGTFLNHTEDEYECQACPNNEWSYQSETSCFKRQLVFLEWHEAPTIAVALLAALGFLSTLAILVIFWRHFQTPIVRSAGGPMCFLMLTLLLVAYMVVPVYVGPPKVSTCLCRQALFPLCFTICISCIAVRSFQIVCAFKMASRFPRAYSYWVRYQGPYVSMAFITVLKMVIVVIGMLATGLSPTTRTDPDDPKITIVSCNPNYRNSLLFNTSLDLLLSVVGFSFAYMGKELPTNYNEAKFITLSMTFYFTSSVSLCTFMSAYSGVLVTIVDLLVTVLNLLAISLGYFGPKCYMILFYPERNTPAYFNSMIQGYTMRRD
T1 sequence (Q7RTX0 21-852): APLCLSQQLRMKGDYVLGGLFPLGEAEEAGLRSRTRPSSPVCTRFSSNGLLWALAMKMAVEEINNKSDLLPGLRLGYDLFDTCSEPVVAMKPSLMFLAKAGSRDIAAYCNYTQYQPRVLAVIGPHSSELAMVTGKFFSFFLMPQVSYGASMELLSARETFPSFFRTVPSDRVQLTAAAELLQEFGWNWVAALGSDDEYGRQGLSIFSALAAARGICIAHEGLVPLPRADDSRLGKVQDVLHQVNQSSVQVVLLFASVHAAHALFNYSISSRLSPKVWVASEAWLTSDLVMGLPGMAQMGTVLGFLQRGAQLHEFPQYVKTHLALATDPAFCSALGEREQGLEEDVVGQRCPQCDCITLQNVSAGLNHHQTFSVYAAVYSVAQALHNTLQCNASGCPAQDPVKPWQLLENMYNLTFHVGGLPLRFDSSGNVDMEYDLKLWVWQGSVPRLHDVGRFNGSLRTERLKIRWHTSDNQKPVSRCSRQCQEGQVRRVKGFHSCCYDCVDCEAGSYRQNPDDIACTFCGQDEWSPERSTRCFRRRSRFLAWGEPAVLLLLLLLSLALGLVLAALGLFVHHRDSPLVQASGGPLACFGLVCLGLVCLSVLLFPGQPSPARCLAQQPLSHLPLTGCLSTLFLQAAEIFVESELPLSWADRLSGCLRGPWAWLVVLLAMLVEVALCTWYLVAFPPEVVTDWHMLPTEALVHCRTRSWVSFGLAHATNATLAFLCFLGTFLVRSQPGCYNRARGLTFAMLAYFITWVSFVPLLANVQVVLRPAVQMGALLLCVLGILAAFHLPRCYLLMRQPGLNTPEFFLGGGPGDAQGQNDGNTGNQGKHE

T1R2/T1R3 receptors [3] = target: T1, T1R2/T1R3 receptors; test: Activating or inhibiting effect on T1R2/T1R3 receptors according to concentration (same process as application example 3); format: cell-based; details: FIG. 4
From the text: A stable cell line (HEK293TREX) extracted from human embryonic renal cells was manufactured with the help of the plasmid pIRESpuro3, coding for the G protein chimeras G15-Gi3. A further plasmid (pCDNA5-FRT), coding for the human TAS1R2 sequence, was also used. In this way it was possible to integrate the gene in a defined chromosomal region. The human TAS1R3 subunit of the human sweet taste receptor was cloned in pCDNA3-TO. This allowed the induction of the target gene using tetracycline. The stable, transfixed cell line was cultivated in high glucose content DMEM without tetracycline. For the measurements the cells were sown and cultivated (37° C., 5% CO2) in polylysine-coated 96-well titrimetric places (black with transparent bases) until they achieved an 80% confluence. […] The calcium mobilization by receptor stimulation by the test substances was measured in an automated fluorometer (fluorometric imaging plate reader FLIPR, Molecular Devices, Sunnyvale, Calif.). The test substances were measured in a concentration of 1 mmol/l or 0.1 mmol/l in C1 solution. All data were determined in two independent experiments, which were each repeated three times. The calcium signals obtained were corrected for the proportion of the mock cells and (using the formula ΔF/F=(F−F0)/F0) normalized on the starting intensity of the fluorescence prior to addition of the test substances (F0).

[4] = system: sweet taste intensity (in the oral cavity); test: Taste tests by a sensory panel (sweet taste intensity in the oral cavity); format: in vivo; details: tasting by sensory panel
From the text: From this it can be concluded that during the tasting of the compounds of formulas (1) to (4) in the oral cavity no lactisole was released.

[5] = Sucrose 5% + test substance 10 mg/l
[6] = Sucrose 5%, test substance 10 mg/l

## CCCCCCOC(=O)C(C)Oc1ccc(OC)cc1 (stereo not drawn) [Compound of formula (1), 2-(4-methoxyphenoxy)-propanoic acid hexyl ester]
[1]; Sucrose 5% + test substance 14 mg/l
  Sweet taste impression (1-10) Sample (B): 5.0 ± 1
[1]; Sucrose 5%, test substance 14 mg/l
  Change in sweet taste impression [%]: −10%
T1R2/T1R3 receptors [2]
  Antagonistic effect (inhibition) on the sweet taste receptor: do not themselves demonstrate any antagonistic effect

## COc1ccc(OC(C)C(=O)OCC(COC(=O)C(C)Oc2ccc(OC)cc2)OC(=O)C(C)Oc2ccc(OC)cc2)cc1 (stereo not drawn) [Compound of formula (2), 2-(4-methoxyphenoxy)propanoic acid-2,3-bis-[2-(4-methoxyphenoxy)-propionyloxy]-propyl ester]
[1]; Naringin dihydrochalcone 50 mg/l + test substance 10 mg/l
  Sweet taste impression (1-10) Sample (B): 5.6 ± 2.1
[1]; Naringin dihydrochalcone 50 mg/l, test substance 10 mg/l
  Change in sweet taste impression [%]: 9%
[1]; [5]
  Sweet taste impression (1-10) Sample (B): 5.6 ± 1.5
[1]; [6]
  Change in sweet taste impression [%]: 3%
T1R2/T1R3 receptors [2]
  Antagonistic effect (inhibition) on the sweet taste receptor: do not themselves demonstrate any antagonistic effect
T1R2/T1R3 receptors [3]; in the presence of aspartame or sucrose
  Antagonistic effect on the sweet taste receptor: does not demonstrate any antagonistic effect
T1R2/T1R3 receptors [3]; in the presence of the compound
  Dose-effect curve for aspartame or saccharose: not altered

## CCCCOC(=O)C(C)Oc1ccc(OC)cc1 (stereo not drawn) [Compound of formula (4), 2-(4-methoxyphenoxy)propanoic acid butyl ester]
[1]; Sucrose 5% + test substance 16 mg/l
  Sweet taste impression (1-10) Sample (B): 5.6 ± 1.5
[1]; Sucrose 5%, test substance 16 mg/l
  Change in sweet taste impression [%]: −5%

## COc1ccc(OC(C)C(=O)O)cc1 (stereo not drawn) [Lactisole, 2-(4-methoxyphenoxy)propanoic acid, reference compound]
[1]; [5]
  Sweet taste impression (1-10) Sample (B): 4.2 ± 1.4
[1]; [6]
  Change in sweet taste impression [%]: −27%
[4]
  Influence on the sweet taste intensity (in the oral cavity): clear reduction in the sweet taste intensity
